# According to patent US8178579B2, “Dioxanes and uses thereof” (President and Fellows of Harvard College, priority 2001, dated 2012):
# Molecular target: T1, HDAC6F H216A mutant (Homo sapiens, UniProt Q9UBN7, H216A)
# T1 construct: made in house; host or cells: TAg Jurkat cells, transient transfection, anti-FLAG M2 immunoprecipitation
# T1 sequence (Q9UBN7 1-1215 H216A): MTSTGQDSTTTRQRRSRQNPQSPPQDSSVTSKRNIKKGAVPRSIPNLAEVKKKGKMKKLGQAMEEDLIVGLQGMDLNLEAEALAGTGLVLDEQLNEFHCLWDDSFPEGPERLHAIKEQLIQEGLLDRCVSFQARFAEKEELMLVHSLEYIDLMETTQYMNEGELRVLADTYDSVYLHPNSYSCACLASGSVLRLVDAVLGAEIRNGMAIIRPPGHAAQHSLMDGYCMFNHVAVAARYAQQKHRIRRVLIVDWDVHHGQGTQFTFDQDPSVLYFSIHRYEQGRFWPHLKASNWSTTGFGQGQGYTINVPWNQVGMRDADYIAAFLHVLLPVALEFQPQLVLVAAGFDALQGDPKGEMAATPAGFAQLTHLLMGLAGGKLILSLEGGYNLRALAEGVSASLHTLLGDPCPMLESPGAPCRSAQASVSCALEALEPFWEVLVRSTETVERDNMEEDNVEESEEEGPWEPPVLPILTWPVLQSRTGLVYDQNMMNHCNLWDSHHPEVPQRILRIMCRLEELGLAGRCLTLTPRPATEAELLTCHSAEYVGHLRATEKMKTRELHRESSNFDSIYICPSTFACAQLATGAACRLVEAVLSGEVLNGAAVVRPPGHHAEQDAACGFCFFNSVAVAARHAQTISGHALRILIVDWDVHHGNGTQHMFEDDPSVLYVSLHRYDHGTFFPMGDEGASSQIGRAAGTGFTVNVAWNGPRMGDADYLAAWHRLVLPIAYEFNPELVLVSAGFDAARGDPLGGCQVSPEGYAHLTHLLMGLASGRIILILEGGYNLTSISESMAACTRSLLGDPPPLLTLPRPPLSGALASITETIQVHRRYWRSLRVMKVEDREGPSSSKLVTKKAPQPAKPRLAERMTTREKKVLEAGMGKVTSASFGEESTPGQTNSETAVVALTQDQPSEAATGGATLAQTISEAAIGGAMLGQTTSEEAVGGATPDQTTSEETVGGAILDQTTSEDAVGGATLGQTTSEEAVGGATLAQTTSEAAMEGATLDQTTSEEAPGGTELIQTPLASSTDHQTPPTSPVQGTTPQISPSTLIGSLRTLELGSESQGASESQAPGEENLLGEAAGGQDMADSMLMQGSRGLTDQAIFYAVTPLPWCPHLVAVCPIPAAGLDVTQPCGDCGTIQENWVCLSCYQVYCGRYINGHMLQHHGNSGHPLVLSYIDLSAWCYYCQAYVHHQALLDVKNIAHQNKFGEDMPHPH
# Experiment: in vitro tubulin deacetylase (TDAC) assay, HDAC6F H216A mutant
# Format: biochemical
# Conditions: acetylated tubulin as substrate
# Experimental: FLAG-tagged HDAC pBJ5 constructs were transiently transfected by electroporation with 5 μg DNA for expression of recombinant proteins (C. M. Grozinger, C. A. Hassig and S. L. Schreiber, Proc. Natl. Acad. Sci. USA, 27, 4868 (1999); and C. A. Hassig et al., Proc. Natl. Acad. Sci. USA 95, 3519 (1998)]. Cells were mock transfected without DNA or with a non-FLAG-tagged pCMV-LacZ construct as a negative control. Forty-eight hours after transfection recombinant proteins were immunoprecipitated using anti-FLAG M2 agarose affinity gel beads as described [C. A. Hassig et al., Proc. Natl. Acad. Sci. USA 95, 3519 (1998)]. Western blotting using anti-acetylated α-tubulin (1:1000) anti-tubulin (1:1000), and anti-acetylated (K9, K14) histone H3 (1:1000) antibodies was performed using standard methods (K. M. Koeller et al., Chemistry & Biology, 10 (5) (2003) pp. 397-410). […]
# [^3H]Acetate-incorporated histones were isolated from butyrate-treated HeLa cells as described [J. Taunton, C. […] Immunoprecipitates were incubated with acetylated histones and HDAC activity determined by scintillation counting as described [J. Taunton, C. […] After centrifugation, the supernatant (diluted to 0.4 μg tubulin) and α-FLAG M2 agarose affinity gel beads were analyzed by western blotting with an anti-FLAG M2 antibody (1:1750) to ensure equal protein levels.
row,Structure (SMILES),inhibition of TDAC activity of HDAC6F H216A mutant
1,"CC(/C=C/C(=O)NO)=C\[C@@H](C)C(=O)c1ccc(N(C)C)cc1 [TSA, trichostatin A, reference compound]",exhibited TDAC activity that was inhibited by tubacin and TSA
2,O=C(CCCCCCC(=O)Nc1ccc([C@@H]2OC(c3ccc(CO)cc3)C[C@H](CSc3nc(-c4ccccc4)c(-c4ccccc4)o3)O2)cc1)NO (some centres unmarked) [tubacin],exhibited TDAC activity that was inhibited by tubacin and TSA
